This is an account of results in patent publication US11160816B2, “Composition for treatment of Alzheimer's disease” (GLOVIA COMPANY LIMITED, priority 2017, dated 2021).

Data set [1] deals with oligodendrocyte precursor cells (OPCs). Description: Cultivation of oligodendrocyte precursor cells, phase-contrast observation of proliferation and differentiation (FIG. 2). Format: cell-based, mice. Conditions: final concentration of each 10 μM, cultivated for 48 hours, compared with control (PBS alone).
Data set [2] has the same test system. Description: O1 antibody immunostaining of cultivated OPCs, ratio of O1 positive oligodendrocytes (FIG. 3). Format: cell-based, mice. The conditions noted are these: final concentration of each 0.1 mM, 48 hours, compared with control.
A further data set deals with stroke patients. Conditions: cited from earlier work.
In data set [3] the test system is mild to moderate Alzheimer patients. The conditions noted are these: 400 mg capsule 3 times per day for 180 days; cited from earlier work.
Data set [4] relates to oligodendrocyte progenitor cell. The conditions noted are these: cultivation in the presence of the substance; cited from earlier work.
Setting [5] is: stroke patients, nonpatent document 6.

Each structure is given as a SMILES string.

`C[N+](C)(C)CCOP(=O)([O-])OC[C@H](O)CO` [α-GPC, L-α-glycerylphosphorylcholine]: the “proliferation and differentiation of OPCs (phase-contrast photos)” value in data set [1] is “proliferation and differentiation of OPCs proceeds”. In addition, the “ratio of O1 positive oligodendrocytes against the number of total cells” value in data set [2] is “hardly increases compared with the control”. Also, the cognitive abilities entry with stroke patients (1000 mg per day for 28 days, then oral 400 mg per day for 5 months, 2,044 stroke patients) is reported as “recovery of the patients' cognitive abilities”. In the data set on stroke patients (setting [5]), the “harmful adverse drug reactions, share of patients” value is 2.14%; the “headache, share of patients” value is given as 0.2%; the “heartburn, share of patients” value is listed as 0.7%; the “insomnia/agitation, share of patients” value is 0.4%. Besides, in the data set with stroke patients (setting [5]), the “patients who hoped for stop of treatment” value is 0.7% and the “vomiturition/emesis, share of patients” value is listed as 0.5%. The cognitive function entry in data set [3] is recorded as “improving effect on cognitive function”.

For `C[C@@H]1O[C@@H](OC[C@H]2O[C@@H](Oc3cc(O)c4c(c3)O[C@H](c3ccc(O)cc3)CC4=O)[C@H](O)[C@@H](O)[C@@H]2O)[C@H](O)[C@H](O)[C@H]1O` [narirutin], the “proliferation and differentiation of OPCs (phase-contrast photos)” value in data set [1] was “proliferation and differentiation of OPCs proceeds”. The “generation of p-21.5kDaMBP, proliferation and differentiation of oligodendrocyte progenitor cell” value in data set [4] is on record as “promoted the generation of p-21.5kDaMBP”.

As to `COc1ccc([C@@H]2CC(=O)c3c(O)cc(O[C@@H]4O[C@H](CO[C@@H]5O[C@@H](C)[C@H](O)[C@@H](O)[C@H]5O)[C@@H](O)[C@H](O)[C@H]4O)cc3O2)cc1O` [hesperidin], the “proliferation and differentiation of OPCs (phase-contrast photos)” value in data set [1] was “proliferation and differentiation of OPCs proceeds”. The “generation of p-21.5kDaMBP, proliferation and differentiation of oligodendrocyte progenitor cell” value in data set [4] was “promoted the generation of p-21.5kDaMBP”.
